# Patent US20160151369A1, “SUBSTITUTED 3-PHENYLPROPYLAMINE DERIVATIVES FOR THE TREATMENT OF OPHTHALMIC DISEASES AND DISORDERS” (ACUCELA INC., priority 2013, published 2016)
# Where two headings read alike, the source gives them in different places.
# What was measured:
# [1] = system: isomerase (recovery of 11-cis-retinal after bleaching); experiment: In vivo murine isomerase assay (Table 3); details: Mus musculus, po, mice
# Method: The capability of compounds described herein to inhibit isomerase was determined by an in vivo murine isomerase assay. […] The recovery of 11-cis-retinal after bleaching can be used to estimate the activity of isomerase in vivo. Delayed recovery, as represented by lower 11-cis-retinal oxime levels, indicates inhibition of isomerization reaction.
# Mice were gavaged with the test compound. […] The mice were allowed to recover 2 hours in the dark. The animals were then sacrificed by carbon dioxide inhalation. Retinoids were extracted from the eye and the regeneration of 11-cis-retinal was assessed at various time intervals.
# After the mice were sacrificed, the eyes were immediately removed and placed in liquid nitrogen for storage.
# The eyes were placed in 500 μL of bis-tris propane buffer (10 mM, pH˜7.3) and 20 μL of 0.8M hydroxile amine (pH˜7.3). The eyes were cut up into small pieces with small iris scissors and then thoroughly homogenized at 30000 rpm with a mechanical homogenizer (Polytron PT 1300 D) in the tube until no visible tissue remained. 500 μL of methanol and 500 μL of heptane were added to each tube. The tubes were attached to a vortexer so that the contents were mixed thoroughly for 15 minutes in room temperature. The organic phase was separated from the aqueous phase by centrifugation for 10 min at 13K rpm, 4° C. 240 μL of the solution from the top layer (organic phase) was removed and transferred to clean 300 μl glass inserts in HPLC vials using glass pipette and the vials were crimped shut tightly.
# The samples were analyzed on an Agilent 1100 HPLC system with normal phase column: SILICA (Beckman Coutlier, dp 5 μm, 4.6 mM×250 mM). […] Loading volume for each sample was 100 μl; detection wavelength was 360 nm. The area under the curve for 11-cis retinal oxime was calculated by Agilent Chemstation software and was recorded manually. Data processing was performed using Prizm software.
# Positive control mice (no compound administered) were sacrificed fully dark-adapted and the eye retinoids analyzed. Light (bleached) control mice (no compound administered) were sacrificed and retinoids isolated and analyzed immediately after light treatment.
# A time course study was performed to determine the isomerase inhibitory activity of the test compound. […] The animals were then “photo-bleached” (5000 Lux white light for 10 minutes) at 2, 4, 8, 16 and 24 hours after dosing, and returned to darkness to allow recovery of the 11-cis-retinal content of the eyes. Mice were sacrificed 2 hours after bleaching, eyes were enucleated, and retinoid content is analyzed by HPLC.
# Recovery control mice (vehicle-only treated) were light-treated and left to recover for 2 hours in the dark before sacrifice and analysis. Light control mice (vehicle only treated) were sacrificed for analysis immediately after photo-bleaching.
# An in vivo dose response isomerase inhibition study was performed with test compound. […] Recovery and retinoid analysis were performed as described above. Dark control mice were vehicle-only treated, sacrificed fully dark adapted without light treatment, and analyzed. Recovery control mice and light control mice were included in the study as per the initial phase.
# [2] = system: regeneration of 11-cis-retinal (isomerase); experiment: Single dose time course in the in vivo isomerase assay at 0.3 mg/kg (compound A vs compound D); details: BALB/c mice, single oral dose 0.3 mg/kg; for inhibition at 0.3 mg/kg: Mus musculus, read-out: Percent Inhibition, 0.3 mg/kg, Avg. % Inhibition
# Method: (§1) All test compounds were stored at room temperature, dessicated.
# On the day prior to dose administration 3-amino-1-(3-((tetrahydro-2H-pyran-4-yl)methoxy)phenyl)propan-1-ol (compound A) and 3-amino-1-(3-((tetrahydro-2H-pyran- 2-yl)methoxy)phenyl)propan-1-ol (compound D) were weighed into new empty glass vials. The compounds were dissolved in di-water at the concentration of 0.068 mg/mL and stored overnight at 4° C.
# 52 Male BALB/c mice (Charles River Laboratories) were used for this study. The mice were approximately 8 weeks at the initiation of dosing with an average body weight of 23 grams.
# The day prior to dose administration 52 BALB/c mice were placed into a dark room and dark adapted for a minimum of 12 hours prior to dose administration. The mice were maintained in the dark for the duration of the study.
# Each animal was removed from its cage and dosed accordingly to the study design in Table 10 (see below). Each animal was administered 0.1 mL of the appropriate test article or vehicle orally using a 1 mL syringe fitted with a 23 gauge oral gavage needle. At 2, 4, 6, 8, 16 or 24 hours following dose administration, animals were removed from the dark and exposed to 5000 Lux white light for 10 minutes to photobleach their eyes. Following the completion of the photobleach the animals were returned to the dark for 2 hours to allow for the regeneration of 11-cis-retinal in the eyes. Two hours after photobleaching each animal was euthanized with carbon dioxide followed by cervical dislocation, in the dark under red light. The light control group was euthanized immediately following photobleaching. Immediately following the cervical dislocation both eyes of each animal were removed and transferred into separate tubes, flash frozen in liquid nitrogen and stored in the dark at −80° C. until processing and analysis.
# (§2) All sample processing procedures were performed in the dark under red light.
# Extracted samples were analyzed using an Agilent 1100 HPLC system according to the procedure outlined in Table 12 (see below)
# (§3) HPLC analysis of the eyes measures the peak area units of the 110 cis-Ral-Oxime_syn. Signal.
# (§4) Data analysis % inhibition (drug vs. recovery control). % control (drug vs. light control), and One-way ANOVA (followed by Tukey's Multiple Comparison) were performed using peak area units and performed by Prism software. Data are represented as mean and standard deviation.
# [3] = system: retinal isomerase activity (regeneration of 11-cis-retinal); experiment: Comparative in vivo murine isomerase assay, dose response (compound A vs compound D); design: species or system BALB/c mice
# Method: as §1
# On the day prior to dose administration compound A and compound D were weighed into new empty glass vials. The compounds were dissolved in di-water at the concentration of 0.833 mg/mL compound A and 0.892 mg/mL compound D, serially diluted into various concentrations, and stored overnight at 4 OC.
# 56 Male BALB/c mice (Charles River Laboratories) were used for this study. The mice were approximately 8 weeks at the initiation of dosing with an average body weight of 24 grams.
# The day prior to dose administration 56 BALB/c mice were placed into a dark room and dark adapted for a minimum of 12 hours prior to dose administration. The mice were maintained in the dark for the duration of the study.
# Each animal was removed from its cage and dosed accordingly to the study design in Table 4 (see below). Each animal was administered 0.1 mL of the appropriate compound or vehicle via oral gavage using a 1 mL syringe fitted with a 23 gauge oral gavage needle. Two hours following dose administration, animals were removed from the dark and exposed to 5000 Lux white light for 10 minutes to photobleach their eyes.
# Following the completion of the photobleach the animals were returned to the dark for 2 hours to allow for the regeneration of 11-cis-retinal in the eyes. Two hours after photobleaching each animal was euthanized with carbon dioxide followed by cervical dislocation, in the dark under red light. The light control group was euthanized immediately following photobleaching. Immediately following the cervical dislocation both eyes of each animal were removed and transferred into separate tubes, flash frozen in liquid nitrogen and stored in the dark at −80° C. until processing and analysis.
# as §2
# Extracted samples were analyzed using an Agilent 1100 HPLC system according to the procedure outlined in Table 6 (see below)
# as §3, §4
structure (smiles),measurement,setting,value
NCC[C@@H](O)c1cccc(OCC2CCOCC2)c1 [Example 1],inhibition at 0.03 mg/kg,"[1]; 2 h, Dose 0.03 mg/kg",-2.7%
same,inhibition at 0.1 mg/kg,"[1]; 2 h, Dose 0.1 mg/kg",3.4%
same,inhibition at 0.3 mg/kg,[1]; 2 h,58.4%
same,inhibition at 0.5 mg/kg,"[1]; 2 h, Dose 0.5 mg/kg",89.9%
same,inhibition at 0.81 mg/kg,[1]; 2 h,98.2%
same,inhibition at 1 mg/kg,[1]; 2 h,96.9%
same,inhibition at 3 mg/kg,"[1]; 2 h, Dose 3 mg/kg",101%
same,inhibition at 0.3 mg/kg,[1]; 4 h,15.7%
same,inhibition at 0.81 mg/kg,[1]; 4 h,87.9%
same,inhibition at 1 mg/kg,[1]; 4 h,91.1%
same,inhibition at 0.81 mg/kg,[1]; 6 h,75.8%
same,inhibition at 0.3 mg/kg,[1]; 8 h,10.4%
same,inhibition at 0.81 mg/kg,[1]; 8 h,51.8%
same,inhibition at 1 mg/kg,[1]; 8 h,62%
same,inhibition at 0.3 mg/kg,[1]; 16 h,-2.7%
same,inhibition at 0.81 mg/kg,[1]; 16 h,5.5%
same,inhibition at 1 mg/kg,[1]; 16 h,-1.2%
same,inhibition at 0.3 mg/kg,[1]; 24 h,-4.4%
same,inhibition at 0.81 mg/kg,[1]; 24 h,-4.8%
same,inhibition at 1 mg/kg,[1]; 24 h,3.8%
same,"Percent Control, 0.3 mg/kg (average)",[2]; Time Point 2 Hours,2.0%
same,"Percent Control, 0.3 mg/kg (average)",[2]; Time Point 4 Hours,11.5%
same,"Percent Control, 0.3 mg/kg (average)",[2]; Time Point 6 Hours,43.7%
same,"Percent Control, 0.3 mg/kg (average)",[2]; Time Point 8 Hours,79.8%
same,"Percent Control, 0.3 mg/kg (average)",[2]; Time Point 16 Hours,98.5%
same,"Percent Control, 0.3 mg/kg (average)",[2]; Time Point 24 Hours,95.8%
same,inhibition at 0.3 mg/kg,[2]; Time Point 2 Hours,98%
same,inhibition at 0.3 mg/kg,[2]; Time Point 4 Hours,88.5%
same,inhibition at 0.3 mg/kg,[2]; Time Point 6 Hours,56.3%
same,inhibition at 0.3 mg/kg,[2]; Time Point 8 Hours,20.2%
same,inhibition at 0.3 mg/kg,[2]; Time Point 16 Hours,1.5%
same,inhibition at 0.3 mg/kg,[2]; Time Point 24 Hours,4.2%
same,dose at which 11-cis-retinal recovery was inhibited by 50% (called IC50),"[3]; BALB/c mice, single oral dose, 2 h, dose response experiment",0.17 mg/kg
same,inhibition at 0.03 mg/kg,"[3]; Mus musculus, po, 2 h, BALB/c mice, single oral dose 0.03 mg/kg, bleach 2 h after dose, drug vs. recovery control, read-out: Percent Inhibition at 2 Hours, Avg. % Inhibition",-44.1%
same,inhibition at 0.1 mg/kg,"[3]; Mus musculus, po, 2 h, BALB/c mice, single oral dose 0.1 mg/kg, bleach 2 h after dose, drug vs. recovery control, read-out: Percent Inhibition at 2 Hours, Avg. % Inhibition",-9.8%
same,inhibition at 0.3 mg/kg,"[3]; Mus musculus, po, 2 h, BALB/c mice, single oral dose 0.3 mg/kg, bleach 2 h after dose, drug vs. recovery control, read-out: Percent Inhibition at 2 Hours, Avg. % Inhibition",> 90%
same,inhibition at 0.5 mg/kg,"[3]; Mus musculus, po, 2 h, BALB/c mice, single oral dose 0.5 mg/kg, bleach 2 h after dose, drug vs. recovery control, read-out: Percent Inhibition at 2 Hours, Avg. % Inhibition",~100%
same,inhibition at 1 mg/kg,"[3]; Mus musculus, po, 2 h, BALB/c mice, single oral dose 1 mg/kg, bleach 2 h after dose, drug vs. recovery control, read-out: Percent Inhibition at 2 Hours, Avg. % Inhibition",100%
same,inhibition at 3 mg/kg,"[3]; Mus musculus, po, 2 h, BALB/c mice, single oral dose 3 mg/kg, bleach 2 h after dose, drug vs. recovery control, read-out: Percent Inhibition at 2 Hours, Avg. % Inhibition",105%
same,activity at 0.03 mg/kg,"[3]; Mus musculus, BALB/c mice, single oral dose 0.03 mg/kg, bleach 2 h after dose, read-out: Percent control at 2 Hours (Avg. % Inhibition)",144%
same,activity at 0.1 mg/kg,"[3]; Mus musculus, BALB/c mice, single oral dose 0.1 mg/kg, bleach 2 h after dose, read-out: Percent control at 2 Hours (Avg. % Inhibition)",110%
same,activity at 0.3 mg/kg,"[3]; Mus musculus, BALB/c mice, single oral dose 0.3 mg/kg, bleach 2 h after dose, read-out: Percent control at 2 Hours (Avg. % Inhibition)",7.6%
same,activity at 0.5 mg/kg,"[3]; Mus musculus, BALB/c mice, single oral dose 0.5 mg/kg, bleach 2 h after dose, read-out: Percent control at 2 Hours (Avg. % Inhibition)",0.7%
same,activity at 1 mg/kg,"[3]; Mus musculus, BALB/c mice, single oral dose 1 mg/kg, bleach 2 h after dose, read-out: Percent control at 2 Hours (Avg. % Inhibition)",-0.4%
same,activity at 3 mg/kg,"[3]; Mus musculus, BALB/c mice, single oral dose 3 mg/kg, bleach 2 h after dose, read-out: Percent control at 2 Hours (Avg. % Inhibition)",-5.2%
same,dose showing nearly 100% inhibition,"[3]; dose response experiment, 2 h",0.5 mg/kg
same,"times more active than compound D, by dose for nearly 100% inhibition","[3]; dose response experiment, 2 h",approximately 6 ×
same,"times more active than compound D, by inhibition at a dose of 0.3 mg/kg","[3]; dose response experiment, 2 h",greater than 10 ×
